The source of these data is patent US6821735B1, “Protein involved in abscisic acid signalling” (Plant BioScience Limited, priority 1997, dated 2004).

A word on the pKa: it is the negative logarithm of the acid dissociation constant.

Entries after “also recorded” stand apart in the source; their conditions may differ. Like-named read-outs stand apart in the source and are kept apart here.

Series [1] concerns inward-rectifying K^+ channels of guard cells. To be noted: stated as normal; cited from earlier work.
The test system of series [2] is Xenopus Ca^2+-dependent Cl^− channels. Description: ABA response of Xenopus oocytes injected with N. tabacum poly(A)+ RNA, two-electrode voltage clamp. The series is classed as cell-based, Xenopus laevis. On the technique in general: Two-electrode voltage clamp is typically applied to oocytes expressing channels or transporters.
In series [3] the test system is inward-rectifying K^+ currents of guard cells. Type of series: cell-based, V. faba. To be noted: after 300 s.
For a further series, the system named is SYR transcript. Description: Northern analysis of SYR expression in leaves of treated plants.
Series [4] relates to anion current of guard cells. The series is classed as cell-based, N. benthamiana.
The conditions of series [5]: cited from earlier work.
Series [6] relates to inward-rectifying K^+ channels of guard cells. Type of series: cell-based, N. benthamiana.
Series [7] relates to outward-rectifying K^+ channels of guard cells. Description: Guard cell voltage clamp: ABA response of the outward-rectifying K^+ current (IK,out). The series is classed as cell-based, Nicotiana.
Series [8] concerns current endogenous to the oocytes. Description: Uninjected oocytes in 25 mM K^+: effect of channel inhibitors. To be noted: 25 mM K^+ in the bath.
The subject of series [9] is oocyte endogenous voltage-dependent K^+ channels. Description: Voltage clamp of oocytes expressing SYR: current characterization and channel inhibitors. Set-up: highest maximum value of outward-rectifying current: unit not given here. The conditions noted are these: for reduction of the current in SYR expressing oocytes: toxin in Ringer at Table 3 concentration (TEA 30 mM, niflumic acid 1 mM). Type of series: cell-based, Xenopus laevis.

A further series relates to H440 yeast strain. As to the kind of experiment: Complementation of yeast strain H440 (SSO1 and SSO2 deleted) on galactose deficient medium. The conditions noted are these: H440(SYR) on galactose deficient medium.
The nature of series [10]: Rabbit antisera raised against SYR peptides, tested by Western blot. Type of series: in vivo. The conditions noted are these: bleeds after injection. How it is done:
Both, the purchased (SP1) and the purified (SP2) peptides were injected, each into two rabbits at the UKC animal facilities (University of Kent, Canterbury). Blood sera were taken after four weeks and the rabbits were injected a second time, After a second bleed two to three weeks later, the rabbits were injected a third time and killed while collecting blood from the heart two weeks later. SDS—PAGE and Western Blotting
Prior to hybridization with an antibody, the membrane was blocked with 1×TBS (0.15 M NaCl, 3 mM KCl, 25 mM Tris pH 7.4) and 5% Marvel (milk powder) for 1 h. Antibody hybridization occurred in the same buffer (1×TBS, 5% Marvel) plus 0.1% Tween and 0.1% azide overnight with a rabbit generated antibody with an estimated concentration of 1 ng/μl. The antibody solution was then poured off and stored in the fridge until needed again. The membrane was washed three times with 1×TBS and 0.1% Tween solution. […]
A general note: A western blot detects proteins with antibodies after separation by electrophoresis.

In the case of `CC1=CC(=O)CC(C)(C)[C@@]1(O)/C=C/C(C)=C\C(=O)O` [ABA, abscisic acid], the “inactivation of the inward-rectifying K+ channel current normally caused by ABA” value in [1] was 40-60%. Moreover, the “time for complete decay of the ABA-stimulated current” value in series [2] (20 μM ABA, mRNA injected oocyte) was ≤ 5 min. In addition, the “response to a second ABA application” value in series [2] (2 of the 3 ABA responsive cells) is “In neither case, a second response was detected”. Further, the “increase of steady-state current evoked by ABA” value in [2] (at +60 mV, mRNA injected oocyte) is > 3 μA. The “number of cells showing the ABA response” value in series [2] (of a total of 5 mRNA injected cells tested) is 3 cells. In [2] (oocytes injected with N. tabacum poly(A)+ RNA), the “maximum amplitude of outward-rectifying Cl^− current in response to ABA” value came to 3.1 μA. For the same molecule, the “response of water injected oocytes” value in series [2] (water injected oocytes, n=8) is reported as “did not respond”. Also, the “inhibition of IK,in by ABA” value in series [3] was ~80%. In addition, the “SYR transcript level in leaves” value in the series on SYR transcript (plants treated by spraying, ABA 20 μM, IAA 30 min) is listed as “increased; also recorded: transient induction”. The “time of highest amount of SYR transcript after beginning of treatment” value in the series with SYR transcript (second experiment, total RNA) is listed as 30 min. Besides, in series [4], the “effect of ABA on instantaneous anion current of a control cell” value is reported as “four-fold increase” and the “stimulation of the Cl^− current amplitude” value was 3 fold. The “ABA induced increase of instantaneous anion current, mean, normalized to before ABA” value in [4] (n=3) is 3.5 fold. Also, the pKa in series [5] was 4.8. In [6], the “inhibition of inward K^+ current in response to ABA” value is reported as “about 40%” and the “inward-rectifier current in ABA” value is reported as 24 % of the control. In [6] (n=5), the “mean IK.in ABA normalized for IK.in before ABA” value is 46 % of the original current. Moreover, in [7] (20 M ABA, 10 mM K+ outside), the “stimulation of the outward-rectifier current” value is listed as ~2 fold.
On to `[Ba+2]` [Ba^2+], for which the “effect on the current of uninjected oocytes, in words” value in series [8] is listed as “a time-dependent one arose”. Besides, in [9], the “effect on the current in SYR expressing oocytes, in words” value was “conversion of the instantaneous component into the time-dependent component” and the “reversibility of the toxin effect” value was “Full recovery”.
For `CC[N+](CC)(CC)CC` [TEA, tetraethyl ammonium], in series [8], the “effect on the current of uninjected oocytes, in words” value is reported as “invisible”. Besides, in series [9] (after wash-out), the “reversibility of the toxin effect” value is on record as “reversible”. Besides, the “reduction of the current in SYR expressing oocytes” value in series [9] was found to be 50%.
Consider `O=C(O)c1cccnc1Nc1cccc(C(F)(F)F)c1` [niflumic acid], for which, in series [8], the “effect on the current of uninjected oocytes, in words” value was “abolished”. For the same molecule, in series [9] (after wash-out), the “reversibility of the toxin effect” value is on record as “fully recovered”. Further, the “reduction of the current in SYR expressing oocytes” value in [9] is reported as ~100%.
For `CC(=O)[O-].[K+]` [potassium acetate], the “induction of outward Cl^− currents by weak acid control” value in [2] (20 μM substituted for ABA, mRNA injected oocytes) is “no response was observed”.
For the molecule ω-conotoxin, the “effect on the current in SYR expressing oocytes, in words” value in [9] is “no effect was detected”.

B1: SYR: syntaxin-related protein of N. tabacum, 300 amino acids, SEQ ID NO:2 (protein, listed as Nicotiana tabacum)
chain: MNDLFSGSFSRFRADDQSDSHAIEMGDITGGVNLDKFFEDVEAIKDELKGLEKIYSQLQSSHEKSKTLHNAKAVKDLRSNMDNDVSMALKKAKFIKVRLEALDRSNAANRSLPGCGPGSSSDRTRTSVVNGLRKKLQESMNQFNELRQKMASEYRETVQRRYYTVTGENPDEAVLDTLISTGQSETFLQKAIQEQGRGQVMDTVMEIQERHEAVKELERNLKELHQVFLDMAVLVESQGAQLDDIESQVNRANSFVRGGAQQLQVARKHQKNTRKWTCFAIILLLIIILVVVLSIQPWKK
In the case of B1, the “suppression of the SSO1/SSO2 mutation” value with H440 yeast strain was “could not suppress this mutation”. Moreover, in [9] (50 ng cRNA injected, +60 mV), the “half time of increase in outward-rectifying current after impalement” value came to 20 min and the “highest maximum value of outward-rectifying current” value came to 3. The “reversal potential of the outward-rectifying current” value in series [9] ([K^+]o 25 mM) is “around −35 mV”.

B2: Sp2: truncated Nt-Syr protein, amino acids 1-279 of SEQ ID NO:2, N-His-tagged (protein, listed as Nicotiana tabacum)
chain: MNDLFSGSFSRFRADDQSDSHAIEMGDITGGVNLDKFFEDVEAIKDELKGLEKIYSQLQSSHEKSKTLHNAKAVKDLRSNMDNDVSMALKKAKFIKVRLEALDRSNAANRSLPGCGPGSSSDRTRTSVVNGLRKKLQESMNQFNELRQKMASEYRETVQRRYYTVTGENPDEAVLDTLISTGQSETFLQKAIQEQGRGQVMDTVMEIQERHEAVKELERNLKELHQVFLDMAVLVESQGAQLDDIESQVNRANSFVRGGAQQLQVARKHQKNTRKWTCF
modifications: N-terminal His tag
In the case of B2, the “recognition of the peptide by rabbit blood sera” value in series [10] was “did cross-react with the peptide”. Besides, the “ABA sensitivity of inward-rectifying K+ current after Sp2 loading” value in [6] is recorded as “complete loss of sensitivity to ABA”. Further, the “ABA sensitivity of outward-rectifying K+ current after Sp2 loading” value in [7] (microelectrodes containing 20 or 100 µM Sp2, 20 µM ABA) is “complete loss of sensitivity to ABA”.
